| Structure (SMILES) | melting point |
| --- | --- |
| COc1ccc2ncc(C#N)c(Nc3ccc(Cl)cc3F)c2c1 [Example 283, 4-(4-Chloro-2-fluoro-phenylamino)-6-methoxy-quinoline-3-carbonitrile] | > 250 °C |
| N#Cc1cnc2ccc(NC(=O)C#CCN3CCOCC3)cc2c1Nc1cccc(Br)c1 [Example 58, N-[4-[(3-Bromophenyl)amino]-3-cyano-6-quinolinyl]-4-morpholino-2-butynamide] | 112 to 115 °C |
| COc1cc2c(Nc3cccc(N(C)C)c3)c(C#N)cnc2c(OC)c1OC [Example 232, 4-(3-Dimethylamino-phenylamino)-6,7,8-trimethoxy-quinoline-3-carbonitrile] | 142 to 144 °C |
| COc1cc2c(Nc3ccc(Cl)cc3F)c(C#N)cnc2c(OC)c1OC [Example 234, 4-(4-Chloro-2-fluoro-phenylamino)-6,7,8-trimethoxy-quinoline-3-carbonitrile] | 166 to 168 °C |
| COc1ccc(OC)c2c(Nc3ccc(C)c(O)c3)c(C#N)cnc12 [Example 239, 4-(3-Hydroxy-4-methyl-phenylamino)-5,8-dimethoxy-quinoline-3-carbonitrile] | 240 to 242 °C |
| COc1ccc(OC)c2c(Nc3cccc(N(C)C)c3)c(C#N)cnc12 [Example 242, 4-(3-Dimethylamino-phenylamino)-5,8-dimethoxy-quinoline-3-carbonitrile] | 103 to 105 °C |
| COc1cc2ncc(C#N)c(Nc3ccc(C)c(Br)c3)c2cc1OC [Example 248, 4-(3-Bromo-4-methyl-phenylamino)-6,7-dimethoxy-quinoline-3-carbonitrile] | 292 to 294 °C |
| COc1ccc2ncc(C#N)c(Nc3cc(O)c(Cl)cc3F)c2c1 [Example 285, 4-(4-Chloro-2-fluoro-5-hydroxy-phenylamino)-6-methoxy-quinoline3-carbonitrile] | 228 to 230 °C |
| CCN(CC)CC#CC(=O)Nc1ccc2ncc(C#N)c(Nc3ccc(F)c(Cl)c3)c2c1 [Example 189, N-[4-[(3-Chloro-4-fluorophenyl)amino]-3-cyano-6-quinolinyl]-4-diethylamino-2-butynamide] | 117 to 120 °C |
| COc1cc2ncc(C#N)c(Nc3cccc(C(F)(F)F)c3)c2cc1OC [Example 42, 4-[(3-Trifluoromethylphenyl)amino]-6,7-dimethoxy-3-quinolinecarbonitrile] | 190 to 193 °C |
| COc1cccc2c(Nc3ccc(Cl)cc3F)c(C#N)cnc12 [Example 275, 4-(4-Chloro-2-fluoro-phenylamino)-8-methoxy-quinoline-3-carbonitrile] | 127 °C (dec.) |
| CCN1CCN(CC#CC(=O)Nc2ccc3ncc(C#N)c(Nc4cccc(Br)c4)c3c2)CC1 [Example 188, N-[4-[(3-Bromophenyl)amino]-3-cyano-6-quinolinyl]-4-(N-ethylpiperazino)-2-butynamide] | 161 °C (dec.) |
| COc1cc2ncc(C#N)c(Nc3c(C)cccc3O)c2cc1OC [Example 246, 4-(2-Hydroxy-6-methyl-phenylamino)-6,7-dimethoxy-quinoline-3-carbonitrile] | 245 to 247 °C |
| COc1cc2ncc(C#N)c(Nc3ccc(Cl)cc3F)c2cc1OC [Example 228, 4-(4-Chloro-2-fluoro-phenylamino)-6,7-dimethoxy-quinoline-3-carbonitrile] | 139 to 141 °C |
| N#Cc1cnc2ccc(NC(=O)C#CCO)cc2c1Nc1cccc(Br)c1 [Example 57, N-[4-[(3-Bromophenyl)amino]-3-cyano-6-quinolinyl]-4-hydroxy-2-butynamide] | 253 to 254 °C (dec.) |
| CN(C)CC#CC(=O)Nc1ccc2ncc(C#N)c(Nc3cccc(Br)c3)c2c1 [Example 59, N-[4-[(3-Bromophenyl)amino]-3-cyano-6-quinolinyl]-4-dimethylamino-2-butynamide] | 114 to 118 °C |
| CC(C)N(C)CC#CC(=O)Nc1ccc2ncc(C#N)c(Nc3cccc(Br)c3)c2c1 [Example 191, N-[4-[(3-Bromophenyl)amino]-3-cyano-6-quinolinyl]-4-(N-isopropyl-N-methylamino)-2-butynamide] | 124 to 126 °C |
| COc1cc2ncc(C#N)c(Nc3cccc(CO)c3)c2cc1OC [Example 48, 4-[(3-(hydroxymethyl)phenyl)amino]-6,7-dimethoxy-3-quinolinecarbonitrile] | 250 to 255 °C |
| COc1ccc2ncc(C#N)c(Nc3ccc(C)c(O)c3)c2c1 [Example 284, 4-(3-Hydroxy-4-methyl-phenylamino)-6-methoxy-quinoline-3-carbonitrile] | > 250 °C (dec.) |
| CN1CCN(CC#CC(=O)Nc2ccc3ncc(C#N)c(Nc4cccc(Br)c4)c3c2)CC1 [Example 190, N-[4-[(3-Bromophenyl)amino]-3-cyano-6-quinolinyl]-4-(N-methylpiperazino)-2-butynamide] | 190 °C (dec.) |
| COc1ccc2c(Nc3ccc(C)c(O)c3)c(C#N)cnc2c1 [Example 281, 4-(3-Hydroxy-4-methyl-phenylamino)-7-methoxy-quinoline-3-carbonitrile] | > 250 °C |
| COc1cc2ncc(C#N)c(Nc3cccc(C(N)=O)c3)c2cc1OC [Example 247, 3-(3-Cyano-6,7-dimethoxy-quinolin-4-ylamino)-benzamide] | 253 to 255 °C |
| COCC#CC(=O)Nc1ccc2ncc(C#N)c(Nc3ccc(F)c(Cl)c3)c2c1 [Example 194, N-[4-[-(3-Chloro-4-fluorophenyl)amino]-3-cyano-6-quinolinyl]-4-methoxy-2-butynamide] | 170 to 171 °C |
| COc1ccc(Nc2c(C#N)cnc3c(OC)cccc23)cc1O [Example 279, 4-(3-Hydroxy-4-methoxy-phenylamino)-8-methoxy-quinoline-3-carbonitrile] | 138 to 140 °C (dec.) |

More lines, now with the values ahead:

| melting point | Structure (SMILES) |
| --- | --- |
| 242 to 245 °C | COc1cc2ncc(C#N)c(Nc3cccc(C(=O)O)c3C)c2cc1OC [Example 368, 3-(3-Cyano-6,7-dimethoxy-quinolin-4-ylamino) -2-methyl-benzoic acid] |
| > 250 °C | COc1cc2ncc(C#N)c(Nc3cc(Cl)ccc3O)c2cc1OC [Example 290, 4-(5-Chloro-2-hydroxy-phenylamino)-6,7-dimethoxy-quinoline-3-carbonitrile] |
| 198 to 200 °C | COc1cc2ncc(C#N)c(Nc3cc(C)ccc3O)c2cc1OC [Example 295, 4-(2-Hydroxy-5-methyl-phenylamino)-6,7-dimethoxy-quinoline-3-carbonitrile] |
| > 250 °C | COc1cc2ncc(C#N)c(Nc3ccc(O)cc3C)c2cc1OC [Example 292, 4-(4-Hydroxy-2-methyl-phenylamino)-6,7-dimethoxy-quinoline-3-carbonitrile] |
| > 250 °C | COc1cc2ncc(C#N)c(Nc3ccc(C)c(Cl)c3)c2cc1OC [Example 370, 4-(3-Chloro-4-methyl-phenylamino)-6,7-dimethoxy-quinoline-3-carbonitrile] |
| > 250 °C | COc1cc2ncc(C#N)c(Nc3ccc(O)cc3O)c2cc1OC [Example 300, 4-(2,4-Dihydroxy-phenylamino)-6,7-dimethoxy-quinoline-3-carbonitrile] |
| 197 °C (dec.) | COCC#CC(=O)Nc1ccc2ncc(C#N)c(Nc3cccc(Br)c3)c2c1 [Example 330, N-[4-[(3-Bromophenyl)amino]-3-cyano-6-quinolinyl]-4-methoxy-2-butynamide] |
| > 250 °C | COc1cc2ncc(C#N)c(Nc3ccc(C(N)=O)cc3)c2cc1OC [Example 289, 4-(3-Cyano-6,7-dimethoxy-quinolin-4-ylamino)-benzamide] |
| 116 to 118 °C | COc1cc2ncc(C#N)c(Nc3ccc(C(F)(F)F)cc3)c2cc1OC [Example 376, 6,7-Dimethoxy-4-(4-trifluoromethyl-phenylamino)-quinoline-3-carbonitrile] |
| 246 to 249 °C | COc1cc2ncc(C#N)c(Nc3cccc(N(C)C)c3)c2cc1OC [Example 366, 4-(3-Dimethylamino-phenylamino)-6,7-dimethoxy-quinoline-3-carbonitrile] |
| 248 to 250 °C | CCc1ccc(Nc2c(C#N)cnc3cc(OC)c(OC)cc23)cc1 [Example 335, 4-(4-Ethylphenylamino)-6,7-dimethoxyquinoline-3-carbonitrile] |
| 180 °C (dec.) | CN(C)CC#CC(=O)Nc1ccc2ncc(C#N)c(Nc3cccc(Br)c3)c2c1 [Example 329, N-[4-[(3-Bromophenyl)amino]-3-cyano-6-quinolinyl]-4-dimethylamino-2-butynamide] |
| 208 to 210 °C | COc1cc2ncc(C#N)c(Nc3ccc(CCO)cc3)c2cc1OC [Example 299, 4-[4-(2-Hydroxy-ethyl)-phenylamino]-6,7-dimethoxy-quinoline-3-carbonitrile] |
| 123 to 125 °C | COc1cc2ncc(C#N)c(Nc3cccc(CO)c3C)c2cc1OC [Example 333, 4-(3-Hydroxymethyl-2-methylphenylamino)-6,7-dimethoxyquinoline-3-carbonitrile] |
| 179 to 180 °C | COc1cc2c(Nc3ccccc3SC)c(C#N)cnc2cc1OCCCN1CCOCC1 [Example 314, 6-Methoxy-4-(2-methylsulfanyl-phenylamino)-7-(3-morpholin-4-yl-propoxy)-quinoline-3-carbonitrile] |
| > 250 °C | COc1cc2ncc(C#N)c(Nc3cc(Br)c(O)c(Br)c3)c2cc1OC [Example 291, 4-(3,5-Dibromo-4-hydroxy-phenylamino)-6,7-dimethoxy-quinoline-3-carbonitrile] |
| 270 to 272 °C | N#Cc1cnc2cc(O)c(O)cc2c1Nc1ccc(Cl)cc1F [Example 373, 4-(4-Chloro-2-fluoro-phenylamino)-6,7-dihydroxy-quinoline-3-carbonitrile] |
| 227 to 229 °C | COc1cc2ncc(C#N)c(Nc3ccc(Cl)cc3C)c2cc1OC [Example 336, 4-(4-Chloro-2-methylphenylamino)-6,7-dimethoxyquinoline-3-carbonitrile] |
| 200 to 202 °C | COc1ccc(Cl)cc1Nc1c(C#N)cnc2cc(OC)c(OC)cc12 [Example 372, 4-(5-Chloro-2-methoxyphenylamino)-6,7-dimethoxy-quinoline-3-carbonitrile] |
